What was measured:
[1] = test system: irradiated (6.5 Gy) wild type mice (FVB/n); assay: Myelosuppression assay: complete blood counts after sub-lethal irradiation, with or without erythropoietin; type: in vivo, mouse; conditions: PD0332991 150 mg/kg oral gavage just prior to irradiation, EPO at 72, 96, 120 h post-irradiation, day 17
Protocol: FIG. 1: CDK4/6 inhibition potentiates the efficacy of erythropoietin-mediated recovery of the erythroid cell lineage following DNA damage. Cohorts (8 mice per cohort) of irradiated (6.5 Gy) wild type mice (FVB/n) are given placebo, erythropoietin (EPO), a CDK4/6 inhibitor (PD0332991), or a combination of CDK4/6 inhibitor and EPO (PD0332991+EPO). Serial blood draws are performed at day 17 after treatment and complete blood counts assessed to determine the number of red blood cells, various leukocytes subpopulations, and platelets. The effect of treatment on platelets is shown in the panel on the upper left, red blood cells (RBC) in the panel on the upper right, hemoglobin (Hb) in the panel on the lower left, and hematocrit (HCT) in the panel on the lower right. Error bars represent +/−SEM. […]
Baseline complete blood cell (CBC) anaylsis was performed on a subset of mice prior to drug administration. […] Blood was analyzed using a Hemavet CBC-Diff Veterinary Hematology System (Drew Scientific Inc., Dallas, Tex., United States of America). […]
Cohorts of FVB wild type mice were given placebo or CDK4/6 inhibitor (PD0332991, 150 mg/kg oral gavage) just prior to receiving a sub-lethal dose of irradiation (6.5 Gcy). […] Complete blood counts (CBCs) were assessed to determine the number of red blood cells, various leukocytes subpopulations and platelets.

[2] = test system: human peripheral blood T cells (memory and naive); assay: Human peripheral blood T cell proliferation after PMA and ionomycin stimulation (BrdU, Ki-67 FACS); type: cell-based
Protocol: FIG. 13: CDK4/6 inhibitors suppress T cell proliferation upon stimulation through TCR pathway in both memory and naïve compartments. Human peripheral blood T cells were purified using Automacs by CD3 positive selection before being treated with CDK4/6 inhibitors and stimulated with PMA and Inomycin for 48 hrs. The proliferation of memory […] T cells after stimulation by PMA and Inomycin was measured by FACS staining of BrdU+ or Ki-67+ cells. The percentages of inhibition are shown, which indicates more inhibition of memory compartment than naïve compartment.
FIG. 14: CDK4/6 inhibitors suppress T cell proliferation upon stimulation through TCR pathway. […] Proliferation determined by BrdU or Ki67 incorporation. […]
FIG. 15: Changes of CD4 T cell composition after CDK4/6 inhibition. […] The memory and terminal differentiated T cell fractions as assessed by BrdU incorporation are reduced after CDK4/6 inhibition. […]
FIG. 16: Changes of CD4 T cell composition after CDK4/6 inhibition. […] The memory and terminal differentiated T cell fractions as assessed by Ki67 staining are reduced after CDK4/6 inhibition. […]
Similar results were seen using human lymphocytes. […] In FIG. 15, the effects of CDK4/6 inhibition on specific Tcell fractions is assessed, with and without TCR, showing CDK4/6 inhibition has a greater effect on proliferation of memory cells relative to naïve cells. […]

CC(=O)c1c(C)c2cnc(Nc3ccc(N4CCNCC4)cn3)nc2n(C2CCCC2)c1=O [PD0332991, 6-acetyl-8-cyclopentyl-5-methyl-2-(5-piperazin-1-yl-pyridin-2-ylamino)-8H-pyrido-[2,3-d]-pyrimidin-7-one]
platelet counts (CBC) [1]: improved platelet counts
proliferation of memory vs naive T cells (BrdU incorporation, Ki67 expression) [2]: more significant decrease in homeostatic proliferation of memory T cells than naive T cells

Source: patent publication US9616062B2, “Cyclin dependent kinase inhibitors and methods of use” (priority 2009, dated 2017)
